Laboratory results from patent US9809623B2, “α4β7 peptide monomer and dimer antagonists” (Protagonist Therapeutics, Inc., priority 2014, dated 2017).
pIC50: −log10 of the molar value. Numbered stars: 1 amine (or outer) side, 2 acyl side, 3 side chain; on linkers, the order of the positions; unused ones are H or OH. Bridge positions count the residues as written; N and C are the ends. Square brackets hold non-standard residues; d marks the D form. Peptide text beside a SMILES is read from it. I, II: the chains in the order shown. Diglycolyl = O=C(COCC(=O)[*:2])[*:1]; NMeR = CN[C@@H](CCCNC(=N)N)C(=O)O; Pen = CC(C)(S)[C@H](N)C(=O)O

Assays:
[1] = Dithiothreitol (DTT) Redox Stability Assay; assay type: physicochemical; conditions: Table 4-C, t1/2, 0.5 mM DTT
Summary of the method: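 Peptide at 50 μM final in 100 mM Tris-Cl pH 7.5 was exposed to 0.5 mM DTT at room temperature. Aliquots taken at 20, 40, 80 and 120 min were quenched with acetic acid and analysed by reverse-phase HPLC at 220 nm for remaining oxidized parent. Half-lives were obtained by first-order exponential decay fit.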

[2] = Plasma Stability Assay; assay type: in vitro ADME; conditions: rat, Table 4-C, t1/2
Summary of the method: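 Rat plasma at 37° C with gentle shaking, peptide added from 10 mM stock; samples taken at 0, 10, 30, 45, 60, 120 and 180 min and quenched 1:4 with acetonitrile/0.1% formic acid. After centrifugation, supernatants were mixed with internal standard peptide (1 ug/mL) and analysed by LC-MS.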

[3] = molecular target: T1, α4β7 (Mus musculus, UniProt P26011+Q00651); assay: α4β7 Cell Adhesion Assay (Mouse), TK1 cells; assay type: cell-based; conditions: Table 4-B; read-out: Cell Adhesion α4β7 Mouse IC50
T1 construct: host or cells: TK1 mouse T cells
T1 sequence (Q00651 34-1039 limits assumed): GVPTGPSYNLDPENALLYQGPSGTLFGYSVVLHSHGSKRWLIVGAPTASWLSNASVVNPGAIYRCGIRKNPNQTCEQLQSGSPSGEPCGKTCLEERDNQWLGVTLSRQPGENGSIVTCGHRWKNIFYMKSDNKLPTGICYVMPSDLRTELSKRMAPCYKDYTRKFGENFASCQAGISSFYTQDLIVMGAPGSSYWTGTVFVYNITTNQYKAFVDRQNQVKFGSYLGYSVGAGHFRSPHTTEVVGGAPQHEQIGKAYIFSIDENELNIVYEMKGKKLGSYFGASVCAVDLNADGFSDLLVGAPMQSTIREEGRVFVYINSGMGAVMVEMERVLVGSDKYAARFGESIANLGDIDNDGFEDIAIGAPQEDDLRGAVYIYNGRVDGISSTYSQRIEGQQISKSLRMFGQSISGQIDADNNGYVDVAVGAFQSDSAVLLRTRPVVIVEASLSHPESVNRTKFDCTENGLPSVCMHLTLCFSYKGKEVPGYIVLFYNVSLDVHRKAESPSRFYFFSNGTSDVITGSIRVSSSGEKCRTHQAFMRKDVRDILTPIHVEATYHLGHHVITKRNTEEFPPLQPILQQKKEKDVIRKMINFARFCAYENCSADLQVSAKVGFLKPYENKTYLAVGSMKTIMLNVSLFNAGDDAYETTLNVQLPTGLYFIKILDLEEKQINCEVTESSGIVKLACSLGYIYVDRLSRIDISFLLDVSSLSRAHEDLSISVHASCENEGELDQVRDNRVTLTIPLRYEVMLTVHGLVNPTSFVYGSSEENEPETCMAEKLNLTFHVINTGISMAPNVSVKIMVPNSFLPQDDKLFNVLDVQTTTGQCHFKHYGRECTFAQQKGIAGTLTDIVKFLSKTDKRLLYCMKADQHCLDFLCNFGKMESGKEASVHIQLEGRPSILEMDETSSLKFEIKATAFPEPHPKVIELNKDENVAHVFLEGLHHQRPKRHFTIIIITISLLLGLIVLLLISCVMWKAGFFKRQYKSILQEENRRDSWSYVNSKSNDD
T1 sequence (P26011 20-806): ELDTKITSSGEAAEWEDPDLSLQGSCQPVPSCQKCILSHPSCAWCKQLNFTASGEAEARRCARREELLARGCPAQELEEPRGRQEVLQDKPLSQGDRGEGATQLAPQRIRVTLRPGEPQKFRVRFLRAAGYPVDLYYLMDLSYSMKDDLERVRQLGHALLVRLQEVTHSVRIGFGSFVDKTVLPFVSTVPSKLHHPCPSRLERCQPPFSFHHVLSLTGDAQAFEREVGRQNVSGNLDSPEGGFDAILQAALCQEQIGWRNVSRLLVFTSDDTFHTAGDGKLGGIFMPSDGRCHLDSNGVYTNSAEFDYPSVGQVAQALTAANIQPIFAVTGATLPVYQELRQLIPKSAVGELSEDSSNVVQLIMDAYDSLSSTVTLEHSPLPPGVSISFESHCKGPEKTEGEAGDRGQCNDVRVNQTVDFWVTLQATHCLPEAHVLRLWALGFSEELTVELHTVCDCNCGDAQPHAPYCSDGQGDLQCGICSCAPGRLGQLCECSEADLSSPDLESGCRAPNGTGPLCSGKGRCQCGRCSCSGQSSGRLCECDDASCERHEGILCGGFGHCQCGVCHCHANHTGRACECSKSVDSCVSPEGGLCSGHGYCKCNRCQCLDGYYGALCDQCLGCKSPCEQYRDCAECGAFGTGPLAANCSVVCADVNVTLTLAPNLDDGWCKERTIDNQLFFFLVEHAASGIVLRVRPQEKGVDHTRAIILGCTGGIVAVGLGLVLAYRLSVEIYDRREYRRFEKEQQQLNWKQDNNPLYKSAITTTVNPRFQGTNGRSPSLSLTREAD
Summary of the method: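 Mouse TK1 cells in DMEM with 0.1% BSA, 10 mM HEPES pH 7 and 1 mM MnCl2 were allowed to adhere for 30-45 min at 37 °C to plates coated with recombinant human MAdCAM-1 Fc (200 ng/well) in the presence of serially diluted peptides. Adherent cells were quantified by MTT absorbance at 570 nm, with no-cell background subtracted for dose response.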

[4] = molecular target: α4β1 (Homo sapiens, UniProt P05556+P13612); assay: α4β1-VCAM Cell Adhesion Assay (Jurkat E6.1 human cells); assay type: cell-based; set-up: host or cells: Jurkat E6.1 human T cells; conditions: Table 4-B; read-out: Cell Adhesion α4β1 IC50
α4β1, sequence (P13612 34-1032): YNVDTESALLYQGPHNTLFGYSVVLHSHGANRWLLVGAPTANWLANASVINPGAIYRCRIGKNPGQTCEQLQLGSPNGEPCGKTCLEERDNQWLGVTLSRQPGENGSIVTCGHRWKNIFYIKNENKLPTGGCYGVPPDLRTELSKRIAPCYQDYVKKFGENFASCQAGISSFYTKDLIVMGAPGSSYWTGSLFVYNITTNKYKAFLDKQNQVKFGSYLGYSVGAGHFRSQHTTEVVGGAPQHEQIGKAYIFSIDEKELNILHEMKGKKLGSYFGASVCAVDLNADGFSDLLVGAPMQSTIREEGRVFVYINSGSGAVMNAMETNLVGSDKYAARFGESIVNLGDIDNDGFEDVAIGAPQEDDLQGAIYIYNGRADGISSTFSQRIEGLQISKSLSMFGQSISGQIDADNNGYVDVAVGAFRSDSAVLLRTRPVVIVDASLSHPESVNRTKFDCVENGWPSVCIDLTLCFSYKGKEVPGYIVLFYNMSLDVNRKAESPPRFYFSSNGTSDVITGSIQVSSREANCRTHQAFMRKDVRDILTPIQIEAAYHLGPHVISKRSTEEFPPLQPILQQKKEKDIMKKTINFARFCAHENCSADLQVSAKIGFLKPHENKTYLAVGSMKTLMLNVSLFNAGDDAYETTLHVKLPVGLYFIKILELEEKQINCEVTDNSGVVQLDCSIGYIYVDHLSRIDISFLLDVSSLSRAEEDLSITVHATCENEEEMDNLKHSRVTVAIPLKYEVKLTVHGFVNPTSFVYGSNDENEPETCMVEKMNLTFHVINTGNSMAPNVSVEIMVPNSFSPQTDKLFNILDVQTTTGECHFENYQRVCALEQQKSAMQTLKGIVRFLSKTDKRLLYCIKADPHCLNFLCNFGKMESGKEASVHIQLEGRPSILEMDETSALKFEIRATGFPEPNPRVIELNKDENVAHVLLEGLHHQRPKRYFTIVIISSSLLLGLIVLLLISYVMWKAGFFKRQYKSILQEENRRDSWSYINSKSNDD
α4β1, sequence (P05556 21-798): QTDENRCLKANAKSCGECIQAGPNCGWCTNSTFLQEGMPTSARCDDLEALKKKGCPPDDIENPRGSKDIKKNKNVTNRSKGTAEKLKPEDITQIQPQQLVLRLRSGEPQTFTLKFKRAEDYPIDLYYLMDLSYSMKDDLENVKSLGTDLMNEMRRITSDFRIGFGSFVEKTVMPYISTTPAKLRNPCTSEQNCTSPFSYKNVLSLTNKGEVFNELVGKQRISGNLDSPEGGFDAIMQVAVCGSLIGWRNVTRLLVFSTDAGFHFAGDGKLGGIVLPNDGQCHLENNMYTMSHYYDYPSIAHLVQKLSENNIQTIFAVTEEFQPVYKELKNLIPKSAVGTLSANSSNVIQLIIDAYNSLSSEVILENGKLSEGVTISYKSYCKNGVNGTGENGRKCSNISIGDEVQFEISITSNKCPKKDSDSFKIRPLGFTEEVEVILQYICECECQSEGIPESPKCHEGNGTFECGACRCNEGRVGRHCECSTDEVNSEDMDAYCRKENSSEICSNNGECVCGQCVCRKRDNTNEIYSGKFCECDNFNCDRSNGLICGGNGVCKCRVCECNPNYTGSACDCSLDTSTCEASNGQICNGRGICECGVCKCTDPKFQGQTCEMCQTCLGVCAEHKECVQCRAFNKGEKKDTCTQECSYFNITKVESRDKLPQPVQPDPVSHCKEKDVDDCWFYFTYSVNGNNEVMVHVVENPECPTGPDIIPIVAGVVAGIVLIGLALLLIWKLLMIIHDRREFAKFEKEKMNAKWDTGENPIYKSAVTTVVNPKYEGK
Summary of the method: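 Jurkat E6.1 cells in DMEM with 0.1% BSA, 10 mM HEPES pH 7 and 1 mM MnCl2 were added (200,000/well) with serially diluted peptides to rh VCAM-1-Fc-coated wells (400 ng/well) for 30-45 min at 37 °C. Adherent cells after washing were quantified by MTT, absorbance 570 nm, with no-cell background subtracted for dose response.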

SMILES: CC(=O)N[C@@H]1C(=O)N(C)[C@@H](CCCNC(=N)N)C(=O)N[C@@H](CO)C(=O)N[C@@H](CC(=O)O)C(=O)N[C@@H]([C@@H](C)O)C(=O)N[C@@H](CC(C)C)C(=O)N[C@H](C(=O)N[C@@H](Cc2c[nH]c3ccccc23)C(=O)N[C@@H](CCC(=O)O)C(=O)N[C@H](CCCCNC(=O)COCC(=O)NCCCC[C@@H](NC(=O)[C@H](CCC(=O)O)NC(=O)[C@H](Cc2c[nH]c3ccccc23)NC(=O)[C@H]2NC(=O)[C@H](CC(C)C)NC(=O)[C@H]([C@@H](C)O)NC(=O)[C@H](CC(=O)O)NC(=O)[C@H](CO)NC(=O)[C@H](CCCNC(=N)N)N(C)C(=O)[C@@H](NC(C)=O)C(C)(C)SSC2(C)C)C(N)=O)C(N)=O)C(C)(C)SSC1(C)C [compound 217, (Ac-Pen-N-Me-R-S-D-T-L-Pen-W-E-k-NH2)2-DIG] (I: Ac-[Pen][NMeR]SDTL[Pen]WE[dK]-NH2 / II: Ac-[Pen][NMeR]SDTL[Pen]WE[dK]-NH2; disulfide I:1-I:7, II:1-II:7 (inferred); linker I:10-II:10 via Diglycolyl (inferred))
- DTT Min [1]: >120 min
- half-life at 20 μM [2]: > 2 h
- pIC50 [3]: 8.92
- pIC50 [4]: < 4.00
